Usually EC50 stands for the concentration at which the effect is half-maximal. A word on the IC50: it is the concentration that gives 50% inhibition.
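Throughout, for IC50: fluorescence polarization competition assay of Kelch domain binding to NRF2, 12-point 1:3 dilution series from 10 µM, read after 1 h at room temperature, floor 10 nM.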

Chain of human KEAP1 (N-term, residues 321-609) (Q14145 321-609): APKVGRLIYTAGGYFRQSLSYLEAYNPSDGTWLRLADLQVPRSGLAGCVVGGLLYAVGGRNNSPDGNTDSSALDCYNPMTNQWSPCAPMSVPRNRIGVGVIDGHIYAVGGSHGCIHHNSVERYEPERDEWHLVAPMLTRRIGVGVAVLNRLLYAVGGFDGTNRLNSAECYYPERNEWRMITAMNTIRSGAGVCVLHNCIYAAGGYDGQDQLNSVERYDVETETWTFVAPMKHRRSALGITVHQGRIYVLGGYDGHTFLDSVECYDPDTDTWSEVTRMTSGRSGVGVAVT

In one experiment the test system is NQO1 mRNA in BEAS-2B cells. The experiment can be described thus: Beas2B NQO1 mRNA cell based assay. On the set-up: species or system human. The following applies: Homo sapiens, BEAS-2B, 24 h, 24 h compound treatment, increase in NQO1 mRNA vs vehicle (0.1% DMSO), read-out: EC50. How it is done: Beas2B NQO1 mRNA Cell Based Assay
The up regulation of the NRF2 mediated gene NAD(P)H:quinone acceptor oxidoreductase 1 (NQO1) was measured using the following assay method: BEAS-2B cells (ATCC CRL-9609) were plated in 96-well clear plates at 20,000 cells/well in 75 μL of cell culture media and incubated overnight (37° C., 5% CO2). On day 2, 25 μL of compound or controls were added to the cells for 24 h. On day 3, the medium was aspirated from the plate and the Cells-to-CT™ 1-Step TaqMan® Kit (Ambion A25603) was used to perform expression analysis directly from cultured cells without RNA purification according to the manufacturer's instructions.
Briefly, cells were washed with ice cold PBS and 22.5 μL of room-temperature DNase/Lysis solution was added to the cells and incubated at room temperature for 5 minutes. To stop the reaction, 2.25 μL of stop solution was added to the cell lysate. The samples were diluted 1:5 using nuclease free water and 2.5 μL transferred into the PCR plate. Real-time PCR was performed using the C-1000 Thermal Cycler (Bio-Rad) using human beta actin as the internal control. The cDNA was amplified with a specific primer for NQO1 using the 1-step RT-PCR master mix (Ambion Cells-to-CT™ 1-Step TaqMan® Kit A25603). The primers/probes sets that were used for amplification of cDNA were obtained from TaqMan Gene Expression Assays (Applied Biosystems). The comparative CT (ΔΔCT) relative quantification method was used to calculate the relative mRNA level of the target gene NQO1 as described in the Applied Biosystems Chemistry Guide.
`C[C@]1(C(=O)O)CCCC[C@H]1C(=O)N1CCc2c(Cl)ccc(OCc3nnn(CC(F)(F)F)c3C(F)F)c2[C@H]1CN1CCCC1=O` [Example 155, (1S,2R)-2-((S)-5-chloro-8-((5-(difluoromethyl)-1-(2,2,2-trifluoroethyl)-1H-1,2,3-triazol-4-yl)methoxy)-1-((2-oxopyrrolidin-1-yl)methyl)-1,2,3,4-tetrahydroisoquinoline-2-carbonyl)-1-methylcyclohexane-1-carboxylic acid]: the EC50 stood at 4.8 nM.

Regarding `Cn1nnc(COc2ccc(Cl)c3c2[C@@H](CN2CCCC2=O)N(C(=O)[C@@H]2CCCC[C@]2(C)c2nn[nH]n2)CC3)c1C(F)F` [Example 151, 1-(((S)-5-chloro-8-((5-(difluoromethyl)-1-methyl-1H-1,2,3-triazol-4-yl)methoxy)-2-((1R,2S)-2-methyl-2-(2H-tetrazol-5-yl)cyclohexane-1-carbonyl)-1,2,3,4-tetrahydroisoquinolin-1-yl)methyl)pyrrolidin-2-one], the EC50 came to 16 nM.

As for `C[C@@H]1CC(=O)N(C[C@@H]2c3c(OCc4nnn(C)c4C(F)(F)F)ccc(Cl)c3CCN2C(=O)[C@H]2CCCC[C@]2(C)C(=O)O)C1` [Example 133, (1S,2S)-2-((S)-5-chloro-1-(((R)-4-methyl-2-oxopyrrolidin-1-yl)methyl)-8((1-methyl-5-(trifluoromethyl)-1H-1,2,3-triazol-4-yl)methoxy)-1,2,3,4-tetrahydroisoquinoline-2-carbonyl)-1-methylcyclohexane-1-carboxylic acid], the EC50 was found to be 20 nM. On to `C[C@]1(C(=O)O)CCCC[C@H]1C(=O)N1CCc2c(Cl)cc(F)c(OCc3nnn4c3CCCC4)c2[C@H]1CN1CC2(CC2)CC1=O` [Example 144, (1S,2R)-2-((S)-5-chloro-7-fluoro-1-((6-oxo-5-azaspiro[2.4]heptan-5-yl)methyl)-8-((4,5,6,7-tetrahydro-[1,2,3]triazolo[1,5-a]pyridin-3-yl)methoxy)-1,2,3,4-tetrahydroisoquinoline-2-carbonyl)-1-methylcyclohexane-1-carboxylic acid], for which the EC50 was 0.022 nM. For the compound `O=C1CCCN1C[C@@H]1c2c(OCc3noc4ccccc34)ccc(Cl)c2CCN1C(=O)[C@@H]1CCCC[C@@H]1c1nn[nH]n1` [Example 81, 1-(((S)-2-((1R,2S)-2-(2H-tetrazol-5-yl)cyclohexane-1-carbonyl)-8-(benzo[d]isoxazol-3-ylmethoxy)-5-chloro-1,2,3,4-tetrahydroisoquinolin-1-yl)methyl)pyrrolidin-2-one], the EC50 came out at 260 nM.

For `O=C(O)[C@H]1CCCC[C@H]1C(=O)N1CCc2c(Cl)ccc(OCc3noc4ccccc34)c2[C@H]1CN1CCCC1=O` [Example 72, (1S,2R)-2-((S)-8-(Benzo[d]isoxazol-3-ylmethoxy)-5-chloro-1-((2-oxopyrrolidin-1-yl)methyl)-1,2,3,4-tetrahydroisoquinoline-2-carbonyl)cyclohexane-1-carboxylic acid], the EC50 was found to be 2.8 nM. On the same count and under the same terms, the same measure for `Cn1nnc(COc2ccc(Cl)c3c2[C@@H](CN2CC4(CC4)CC2=O)N(C(=O)[C@@H]2CCCC[C@@H]2C(=O)O)CC3)c1C(F)F` [Example 197, (1S,2R)-2-((S)-5-Chloro-8-((5-(difluoromethyl)-1-methyl-1H-1,2,3-triazol-4-yl)methoxy)-1-((6-oxo-5-azaspiro [2.4]heptan-5-yl)methyl)-1,2,3,4-tetrahydroisoquinoline-2-carbonyl) cyclohexane-1-carboxylic acid]: 0.51 nM; for `Cn1nnc(COc2ccc(Cl)c3c2[C@@H](CN2CC4(CC4)CC2=O)N(C(=O)[C@@H]2CCCC[C@@H]2c2nnn[nH]2)CC3)c1C(F)F` [Example 202, 5-(((S)-2-((1R,2S)-2-(1H-tetrazol-5-yl)cyclohexane-1-carbonyl)-5-chloro-8-((5-(difluoromethyl)-1-methyl-1H-1,2,3-triazol-4-yl)methoxy)-1,2,3,4-tetrahydroisoquinolin-1-yl)methyl)-5-azaspiro[2.4]heptan-6-one]: 79 nM.

Another experiment addresses human KEAP1 (N-term, residues 321-609) (Homo sapiens, UniProt Q14145). In words: biochemical.
Conditions: not given
For the compound `C[C@]1(C(=O)O)CCCC[C@H]1C(=O)N1CCc2c(Cl)ccc(OCc3nnn(CC(F)(F)F)c3C(F)F)c2[C@H]1CN1CCCC1=O` [Example 155, (1S,2R)-2-((S)-5-chloro-8-((5-(difluoromethyl)-1-(2,2,2-trifluoroethyl)-1H-1,2,3-triazol-4-yl)methoxy)-1-((2-oxopyrrolidin-1-yl)methyl)-1,2,3,4-tetrahydroisoquinoline-2-carbonyl)-1-methylcyclohexane-1-carboxylic acid], the IC50 was found to be 16 nM.

Source of the values: patent US12098148B2, “Therapeutic compounds” (C4X Discovery Limited, priority 2018, dated 2024).
